# How the values were obtained:
# Test in all cases: relative viability (nuclei count vs DMSO), 5 days (fraction); higher = more cells survive
# [1] = compound: Nc1ccn([C@@H]2O[C@H](CO)[C@@H](O)C2(F)F)c(=O)n1 [Gemcitabine] + CC(=O)c1c(C)c2cnc(Nc3ccc(N4CCNCC4)cn3)nc2n(C2CCCC2)c1=O [Palbociclib] (partner 0.5 µM)
# In short: (§1)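 Each reported value is a median over duplicate plates. It expresses relative viability: treated-well nuclei count divided by vehicle-well nuclei count. Lung cancer cell lines in 1536-well plates were dosed by pin tool a day after seeding, alone with one drug or with a fixed anchor-drug dose plus five library-drug doses (not always all listed) in √10 steps, and nuclei were counted after 5 days.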
# Gemcitabine + Bortezomib = compound: Nc1ccn([C@@H]2O[C@H](CO)[C@@H](O)C2(F)F)c(=O)n1 [Gemcitabine] + CC(C)C[C@H](NC(=O)[C@H](Cc1ccccc1)NC(=O)c1cnccn1)B(O)O [Bortezomib] (partner 0.002 µM)
# In short: as §1
# Gemcitabine + Alpelisib = compound: Nc1ccn([C@@H]2O[C@H](CO)[C@@H](O)C2(F)F)c(=O)n1 [Gemcitabine] + Cc1nc(NC(=O)N2CCC[C@H]2C(N)=O)sc1-c1ccnc(C(C)(C)C(F)(F)F)c1 [Alpelisib] (partner 2 µM)
# In short: as §1
# Gemcitabine + Dasatinib = compound: Nc1ccn([C@@H]2O[C@H](CO)[C@@H](O)C2(F)F)c(=O)n1 [Gemcitabine] + Cc1nc(Nc2ncc(C(=O)Nc3c(C)cccc3Cl)s2)cc(N2CCN(CCO)CC2)n1 [Dasatinib] (partner 0.075 µM)
# In short: as §1
Cell Line,relative viability ([1]; first compound 0.001 µM),relative viability ([1]; first compound 0.003162 µM),relative viability ([1]; first compound 0.01 µM),relative viability ([1]; first compound 0.03162 µM),relative viability ([1]; first compound 0.1 µM),relative viability (Gemcitabine + Bortezomib; first compound 0.001 µM),relative viability (Gemcitabine + Bortezomib; first compound 0.003162 µM),relative viability (Gemcitabine + Bortezomib; first compound 0.01 µM),relative viability (Gemcitabine + Bortezomib; first compound 0.03162 µM),relative viability (Gemcitabine + Bortezomib; first compound 0.1 µM),relative viability (Gemcitabine + Alpelisib; first compound 0.001 µM),relative viability (Gemcitabine + Alpelisib; first compound 0.003162 µM),relative viability (Gemcitabine + Alpelisib; first compound 0.01 µM),relative viability (Gemcitabine + Alpelisib; first compound 0.03162 µM),relative viability (Gemcitabine + Alpelisib; first compound 0.1 µM),relative viability (Gemcitabine + Dasatinib; first compound 0.001 µM),relative viability (Gemcitabine + Dasatinib; first compound 0.003162 µM),relative viability (Gemcitabine + Dasatinib; first compound 0.01 µM),relative viability (Gemcitabine + Dasatinib; first compound 0.03162 µM),relative viability (Gemcitabine + Dasatinib; first compound 0.1 µM)
NCI-H441,0.242,0.163,0.178,0.13,0.123,0.642,0.327,0.116,0.14,0.139,0.602,0.327,0.138,0.149,0.12,0.569,0.282,0.215,0.129,0.133
NCI-H1793,0.297,0.3,0.267,0.167,0.145,,,,,,0.706,0.594,0.354,0.156,0.147,0.368,0.388,0.186,0.12,0.12
NCI-H23,0.383,0.245,0.158,0.156,0.139,0.848,0.511,0.148,0.141,0.0999,0.57,0.242,0.108,0.129,0.115,0.865,0.36,0.126,0.135,0.1
HARA,0.234,0.283,0.219,0.179,0.139,1.15,1.22,1.04,0.695,0.1,0.827,0.808,0.682,0.233,0.0894,0.244,0.331,0.241,0.228,0.0727
NCI-H1792,0.699,0.596,0.395,0.254,0.194,1.08,0.925,0.308,0.133,0.093,0.774,0.483,0.182,0.101,0.07,0.785,0.485,0.329,0.192,0.142
NCI-H1703,,,,,,0.306,0.209,0.144,0.11,0.111,0.274,0.178,0.107,0.113,0.117,,,,,
NCI-H1648,0.267,0.273,0.262,0.226,0.327,,,,,,,,,,,,,,,
CAL-12T,0.628,0.48,0.292,0.161,0.16,1.01,0.822,0.521,0.267,0.254,1.6,0.917,0.84,0.285,0.164,0.473,0.395,0.302,0.128,0.114
NCI-H727,0.674,0.592,0.574,0.597,0.503,0.841,0.405,0.241,0.258,0.287,0.412,0.311,0.199,0.221,0.212,0.303,0.33,0.295,0.264,0.345
NCI-H2085,0.441,0.433,0.316,0.314,0.3,1.02,0.964,0.897,0.682,0.405,0.892,0.959,0.765,0.57,0.429,0.221,0.232,0.287,0.206,0.158
NCI-H1395,0.614,0.627,0.445,0.352,0.347,,,,,,1.19,0.815,0.459,0.369,0.406,0.409,0.368,0.371,0.321,0.31
SW 900,0.551,0.562,0.286,0.176,0.186,,,,,,,,,,,0.526,0.138,0.0977,0.0689,0.0628
NCI-H460,0.129,0.212,0.0945,0.0273,0.0115,1.24,1.09,0.419,0.0106,0.0083,0.684,0.484,0.0473,0.0144,0.0066,0.495,0.524,0.46,0.0224,0.0058
A549,,,,,,,,,,,0.919,0.276,0.0341,0.0189,0.0253,,,,,
IA-LM,,,,,,0.882,0.805,0.651,0.0803,0.0498,0.789,0.644,0.744,0.0658,0.0561,,,,,
EKVX,0.412,0.284,0.237,0.168,0.154,0.995,1.07,0.461,0.18,0.142,0.93,0.77,0.454,0.147,0.132,0.471,0.658,0.546,0.232,0.172
ChaGo-K-1,0.99,0.803,0.31,0.186,0.167,1,0.424,0.341,0.23,0.303,,,,,,0.535,0.544,0.205,0.144,0.166

Cell Line,relative viability ([1]; first compound 0.001 µM),relative viability ([1]; first compound 0.003162 µM),relative viability ([1]; first compound 0.01 µM),relative viability ([1]; first compound 0.03162 µM),relative viability ([1]; first compound 0.1 µM),relative viability (Gemcitabine + Bortezomib; first compound 0.001 µM),relative viability (Gemcitabine + Bortezomib; first compound 0.003162 µM),relative viability (Gemcitabine + Bortezomib; first compound 0.01 µM),relative viability (Gemcitabine + Bortezomib; first compound 0.03162 µM),relative viability (Gemcitabine + Bortezomib; first compound 0.1 µM),relative viability (Gemcitabine + Alpelisib; first compound 0.001 µM),relative viability (Gemcitabine + Alpelisib; first compound 0.003162 µM),relative viability (Gemcitabine + Alpelisib; first compound 0.01 µM),relative viability (Gemcitabine + Alpelisib; first compound 0.03162 µM),relative viability (Gemcitabine + Alpelisib; first compound 0.1 µM),relative viability (Gemcitabine + Dasatinib; first compound 0.001 µM),relative viability (Gemcitabine + Dasatinib; first compound 0.003162 µM),relative viability (Gemcitabine + Dasatinib; first compound 0.01 µM),relative viability (Gemcitabine + Dasatinib; first compound 0.03162 µM),relative viability (Gemcitabine + Dasatinib; first compound 0.1 µM)
NCI-H1755,0.431,0.425,0.401,0.414,0.421,0.952,0.958,0.84,0.343,0.312,0.897,0.919,0.768,0.25,0.215,0.454,0.457,0.392,0.243,0.207
NCI-H2228,0.734,0.229,0.142,0.135,0.106,0.98,1.06,0.281,0.198,0.126,0.74,0.534,0.144,0.123,0.134,0.529,0.3,0.118,0.111,0.087
NCI-H2087,0.266,0.197,0.193,0.165,0.136,0.743,0.569,0.581,0.155,0.166,1.26,0.872,0.38,0.15,0.14,0.746,0.499,0.169,0.0893,0.0871
LU99A,0.412,0.43,0.409,0.404,0.421,1.14,1.18,1,1.25,1.18,0.506,0.576,0.515,0.505,0.481,0.555,0.56,0.558,0.516,0.507
NCI-H1355,0.403,0.365,0.251,0.168,0.146,1.17,0.948,0.521,0.145,0.16,0.756,0.569,0.135,0.156,0.116,0.813,0.695,0.226,0.196,0.143
LK-2,0.798,0.696,0.403,0.119,0.126,,,,,,1.23,,0.447,0.242,0.251,0.299,0.356,0.174,0.201,0.158
NCI-H1944,0.357,0.286,0.268,0.229,0.171,,,,,,0.855,0.845,0.783,0.366,0.14,0.208,0.209,0.182,0.153,0.123
NCI-H1650,0.339,0.308,0.261,0.186,0.127,0.189,0.18,0.175,0.147,0.133,,,,,,0.297,0.241,0.141,0.088,0.115
NCI-H596,,,,,,1,1.11,0.555,0.349,0.41,0.489,0.454,0.345,0.329,0.194,0.528,0.521,0.289,0.242,0.215
SK-MES-1,0.257,0.274,0.229,0.223,0.225,,,,,,0.658,0.454,0.21,0.189,0.183,0.297,0.171,0.116,0.119,0.114
NCI-H2170,0.408,0.394,0.266,0.184,0.13,,,,,,0.85,0.767,0.412,0.181,0.169,0.609,0.673,0.415,0.114,0.104
NCI-H358,0.124,0.0834,0.0975,0.0732,0.08,,,,,,0.64,0.236,0.154,0.175,0.151,0.21,0.151,0.0931,0.0759,0.0931
NCI-H1563,,,,,,0.93,0.965,0.851,0.608,0.537,0.99,0.94,0.635,0.651,0.428,0.433,0.46,0.457,0.378,0.373
EBC-1,,,,,,0.53,0.307,0.15,0.198,0.164,0.589,0.21,0.168,0.187,0.165,,,,,
Calu-6,,,,,,1.04,0.57,0.26,0.167,0.159,1.02,0.415,0.224,0.13,0.12,,,,,
HCC-44,0.934,0.908,0.938,0.717,0.447,0.895,0.874,0.701,0.393,0.131,0.808,0.791,0.636,0.238,0.122,,,,,

# — the supplement of paper PMC10307832
